Test results reported in the CheMixHub ionic liquid set.

Test: xn = mol fraction of the nth substance listed
Conditions: 100 kPa

CCCC[n+]1ccn(C)c1.N#C[S-] + c1ccsc1
viscosity [mPa·s]
Conditions	x2 = 0	x2 = 0.103	x2 = 0.143	x2 = 0.246	x2 = 0.61	x2 = 0.701
298.15 K	57.4	47.2	42.9	32	13.36	9.93
308.15 K	37.4	31.4	28.7	22	9.94	7.57
318.15 K	25.8	22.1	20.4	15.96	7.67	5.96
328.15 K	18.7	16.22	15.07	12.02	6.1	4.83
